Values of other authors, collected in US9168307B2, “Mitochondrial-targeted cationic nanoparticles comprising CaMKII inhibitors and uses thereof for treating and preventing diseases and disorders associated with CaMKII activity” (University of Iowa Research Foundation, priority 2012, dated 2015).

System: CaMKII
Conditions: starting point for dose response curve

In the case of “KRPPKLGQIGRAKRVVIEDDR (SEQ ID NO:1) [peptide]”, the IC50 is given as 0.1 µM.
